Values joined by “and” are separate entries in the source; they are usually repeats but may differ in a detail not shown here. Equal values may be shown once.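 Step 1: Grow cells in 96-well plates. Step 2: Expose to compound for 48 hours at 5 concentrations. Step 3: Interpolate endpoints linearly; if unreached, use highest concentration. GI50 marks 50% less growth. TGI is the concentration that stops growth completely.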 Some results are limits rather than exact numbers.

Among the test systems are HOP-62 NSCLC; SK-MEL-5 melanoma; SK-MEL-28 melanoma; MDA-MB-435; HT29 colon; MCF7 breast; NCI/ADR-RES ovarian; CAKI-1 renal; A498 renal; SNB-19 CNS.
Common to all, as to experiment: NCI tumour cell line growth inhibition, 48 h

Turning to `O=C(NO)c1ccc(CN(c2cnccn2)c2cnccn2)cc1`, the GI50 in the assay with HOP-62 NSCLC is 15.4 µM; in the assay with SK-MEL-5 melanoma, 13.1 µM; with SK-MEL-28 melanoma, 11 µM; in the assay with MDA-MB-435, 12.2 µM; in the assay on HT29 colon, 15.4 µM; in the assay on MCF7 breast, 12.1 µM. Moreover, the GI50 in the assay with NCI/ADR-RES ovarian is 10.3 µM; with CAKI-1 renal, 12.7 µM; with A498 renal it was 10.3 µM; in the assay on SNB-19 CNS, 17.7 µM. The TGI in the assay with HOP-62 NSCLC is 34.8 µM; in the assay on SK-MEL-5 melanoma it was 26.1 µM; in the assay with SK-MEL-28 melanoma it was 36.4 µM; in the assay on MDA-MB-435 it was 27.7 µM; in the assay with HT29 colon it was 38 µM; in the assay on MCF7 breast it was > 100 µM. The TGI in the assay on NCI/ADR-RES ovarian is 37.4 µM; in the assay on CAKI-1 renal it was 40.1 µM; with A498 renal it was 28.3 µM; in the assay with SNB-19 CNS, 72.5 µM.
For the molecule `C/C(=N\NC(=S)N1CC2CCC(CC2)C1)c1ccccn1`, the GI50 in the assay on HOP-62 NSCLC is 0.142 µM; with SK-MEL-5 melanoma, 0.133 µM; with SK-MEL-28 melanoma, 0.767 µM; in the assay with MDA-MB-435, 0.141 µM; in the assay on HT29 colon, < 0.014 µM; with MCF7 breast, < 0.0145 µM. Moreover, the GI50 is < 0.0177 µM in the assay with NCI/ADR-RES ovarian, 0.27 µM with CAKI-1 renal, 0.416 µM in the assay on A498 renal and 0.345 µM with SNB-19 CNS. The TGI in the assay on HOP-62 NSCLC amounted to 1.69 µM; with SK-MEL-5 melanoma it was 0.852 µM; with SK-MEL-28 melanoma, 2.93 µM; with MDA-MB-435 it was 1.64 µM; with HT29 colon it was 1.67 µM; with MCF7 breast, 1.44 µM. For the same molecule, the TGI in the assay with NCI/ADR-RES ovarian worked out at 2.43 µM; in the assay on CAKI-1 renal, 3.89 µM; in the assay with A498 renal it was 1.91 µM; in the assay with SNB-19 CNS, 3.78 µM.
Turning to `Nc1nc(N)nc(CCCc2nc(N)nc(N)n2)n1`, the TGI in the assay with HOP-62 NSCLC, with SK-MEL-5 melanoma, with SK-MEL-28 melanoma, in the assay on MDA-MB-435, in the assay with HT29 colon and with MCF7 breast was > 100 µM throughout. Also, the TGI with NCI/ADR-RES ovarian, in the assay on CAKI-1 renal, in the assay with A498 renal and with SNB-19 CNS was > 100 µM each time.
Take `CCCCCCCCCCCCOC1C(C(CC(=O)NCCN2CCCC2)NS(=O)(=O)c2cc(Cl)cc(Cl)c2)OC2OC(C)(C)OC21` (stereo not drawn): the GI50 is 1.74 µM in the assay with HOP-62 NSCLC; 1.81 µM in the assay on SK-MEL-5 melanoma; 1.94 µM and 1.59 µM in the assay with SK-MEL-28 melanoma; 1.41 µM in the assay with MDA-MB-435; 1.76 µM and 1.31 µM in the assay on HT29 colon; 1.98 µM and 1.73 µM in the assay on MCF7 breast. In addition, the GI50 with NCI/ADR-RES ovarian is 2.04 µM; in the assay on CAKI-1 renal, 1.79 µM; in the assay with A498 renal, 2.4 µM; in the assay with SNB-19 CNS, 2.2 µM and 1.37 µM. The TGI in the assay with HOP-62 NSCLC was 3.39 µM; in the assay on SK-MEL-5 melanoma it was 3.27 µM; in the assay on SK-MEL-28 melanoma it was 3.55 µM and 3.1 µM; with MDA-MB-435, 3.03 µM; in the assay on HT29 colon, 3.45 µM and 2.85 µM; in the assay on MCF7 breast, 3.91 µM and 3.51 µM. In addition, the TGI is 4.08 µM in the assay with NCI/ADR-RES ovarian; 3.4 µM in the assay on CAKI-1 renal; 4.79 µM in the assay on A498 renal; 4.36 µM and 2.81 µM in the assay with SNB-19 CNS.
For `O=C(OCc1ccc2c(Cl)cc(Cl)c(O)c2n1)N1CCN(C(=O)c2cc3cc(F)ccc3[nH]2)CC1`, the GI50 in the assay with HOP-62 NSCLC is 1.31 µM; with SK-MEL-5 melanoma, 1.11 µM; in the assay with SK-MEL-28 melanoma, 87 µM; in the assay on MDA-MB-435, 0.358 µM; in the assay on HT29 colon it was 62.7 µM; with MCF7 breast, 0.404 µM. The GI50 in the assay with NCI/ADR-RES ovarian is 0.331 µM; in the assay on CAKI-1 renal, 0.905 µM; in the assay on A498 renal, 0.504 µM; in the assay on SNB-19 CNS, 4.13 µM. In addition, the TGI in the assay with HOP-62 NSCLC was > 100 µM; in the assay on SK-MEL-5 melanoma it was 3.9 µM; in the assay with SK-MEL-28 melanoma it was > 100 µM; in the assay on MDA-MB-435, 2.18 µM; in the assay on HT29 colon it was > 100 µM; with MCF7 breast it was > 100 µM. Moreover, the results for the TGI with CAKI-1 renal, with A498 renal and in the assay with SNB-19 CNS were > 100 µM, 5.48 µM and > 100 µM, respectively.
For `C[C@]12CC[C@@H]3c4ccc(O)c([N+](=O)[O-])c4CC[C@H]3[C@@H]1CC[C@@H]2NS(=O)(=O)c1cccc(Br)c1`, the GI50 with HOP-62 NSCLC was 1.9 µM; in the assay on SK-MEL-5 melanoma, 1.67 µM; in the assay on SK-MEL-28 melanoma it was 1.85 µM; with MDA-MB-435, 1.53 µM; in the assay on HT29 colon, 1.94 µM; with MCF7 breast it was 1.8 µM. The GI50 in the assay on NCI/ADR-RES ovarian is 2.69 µM; in the assay with CAKI-1 renal, 2.36 µM; in the assay with A498 renal it was 2.06 µM; in the assay with SNB-19 CNS it was 3.53 µM. The TGI was determined as 3.54 µM in the assay with HOP-62 NSCLC; 3.11 µM with SK-MEL-5 melanoma; 3.67 µM in the assay with SK-MEL-28 melanoma; 2.98 µM in the assay on MDA-MB-435; 3.92 µM in the assay with HT29 colon; 3.93 µM with MCF7 breast. The TGI with NCI/ADR-RES ovarian was determined as 8.55 µM; in the assay with CAKI-1 renal it was 5.43 µM; in the assay with A498 renal, 5.87 µM; with SNB-19 CNS, 14.1 µM.
For the molecule `Cc1ccc(Nc2nnc(-c3ccc4c(c3)OCO4)o2)c(C)c1`, the TGI in the assay with HOP-62 NSCLC, in the assay with SK-MEL-5 melanoma, in the assay with SK-MEL-28 melanoma, with MDA-MB-435, in the assay with HT29 colon and with MCF7 breast was > 100 µM each time. The TGI with NCI/ADR-RES ovarian, in the assay with CAKI-1 renal, in the assay with A498 renal and with SNB-19 CNS was > 100 µM each time.
With `O=C(CSC(c1ccccc1)c1ccccc1)N/N=C/c1ccco1`, the GI50 with HOP-62 NSCLC is 1.84 µM; in the assay on SK-MEL-5 melanoma, 1.5 µM; with SK-MEL-28 melanoma, 20.8 µM; in the assay on MDA-MB-435, 2.01 µM; in the assay on HT29 colon it was 18.7 µM; with MCF7 breast, 1.74 µM. Also, the GI50 in the assay on CAKI-1 renal was 4.7 µM; in the assay with A498 renal it was 1.89 µM; in the assay with SNB-19 CNS, 36 µM. The TGI in the assay with HOP-62 NSCLC is 3.84 µM; with SK-MEL-5 melanoma it was 6.41 µM; in the assay on SK-MEL-28 melanoma, 50.7 µM; in the assay with MDA-MB-435, 11.5 µM; in the assay on HT29 colon it was 48.3 µM; with MCF7 breast, > 5.22 µM. Further, the TGI in the assay on NCI/ADR-RES ovarian was 1.24 µM; with CAKI-1 renal it was 23.2 µM; in the assay on A498 renal, 5.37 µM; in the assay with SNB-19 CNS, > 100 µM.

These data come from PubChem BioAssay (NCI).
